Source: patent US12012408B2, “Purine compounds and method for the treatment of cancer” (THE ROYAL INSTITUTION FOR THE ADVANCEMENT OF …, priority 2018, dated 2024)

Tests used:
[1] = test system: Aurora A, Aurora B, Aurora C in MDA-MB-231 and BT-20 cells; experiment: Western blot of cellular Aurora kinase phosphorylation and expression; type: cell-based
Procedure: (§1) Sub-confluent cells were washed with PBS, lysed in RIPA buffer (50 mM Tris-HCl at pH7.5, 150 mM sodium chloride, 1% tritonX-100, 0.1% SDS, 2 mM EDTA and 25 mM sodium fluoride) supplemented with 1 mM PMSF and protease inhibitor cocktail (Roche) for 10 min on ice and centrifuged (13,000 rpm at 4° C. for 20 min) to separate cell lysate. Cell lysate (50 μg protein, as measured by the Bradford protein assay) was then added with SDS sample buffer (Tris at pH 6.8, 20% glycerol, 5% SDS, bromophenol blue and β-mercaptoethanol) and boiled for 5 min. Samples were then resolved through 13% SDS-PAGE gels, transferred to nitrocellulose membrane, blotted with specific first antibodies at different dilution in cold room overnight, and then amplified with horseradish peroxidase-conjugated secondary antibodies for 1 hour in room temperature and enhanced by chemiluminescence detection system.
(§2) To further evaluate cellular Aurora kinase inhibitory activity of SLLN-15, western blot analysis was carried out in both MDA-MB-231 and BT-20 cell lines. […] To gain further insight into the mechanism underlying the regulation of Aurora A and B by SLLN-15, we next examined whether Aurora A and B were degraded via the proteasome pathway.

[2] = test system: Akt/mTOR pathway in MDA-MB-231 and BT-20 cells; experiment: Western blot of the Akt/mTOR pathway; type: cell-based; details: FIG. 4A
Procedure: as §1
The PI3K/Akt/mTOR pathway is a well-established pathway that is frequently activated in cancer cells and acts as a key negative regulator of autophagy (Schmelzle T et al. TOR, a central controller of cell growth Cell 2000; 103:253-62; Shi J et al. IL10 inhibits starvation-induced autophagy in hypertrophic scar fibroblasts via cross talk between the IL10-IL10R-STAT3 and IL10-AKT-mTOR pathways Cell Death Dis 2016; 7:e2133). […]

[3] = test system: MDA-MB-231 and BT-20 cells; experiment: BrdU labeling cell proliferation assay; type: cell-based; details: FIG. 6D
Procedure: The proliferation effects of SLLN-15 were assessed using the bromodeoxyuridine (BrdU) Cell proliferation Assay Kit (Biovision). Cells were seeded at a density of 5000 cells/well in a 96-well plate and treated with SLLN-15 or rapamycin (Cayman chemical) as indicated concentration or DMSO for 24 hours. The plates were read on FLUOstar OPTIMA microplate reader (BMG Labtech, Ortenberg, Germany) at 450 nm. Assays were performed in triplicate on three independent experiments.

[4] = test system: MDA-MB-231 and BT-20 cells; experiment: MTT assay (short-term cell viability); type: cell-based
Procedure: The short-term effects of SLLN-15 on tumor cell growth were assessed using the 3-(4,5-dimethylthiazol-2-yl)-2,5-diphenylte-trazolium bromide (MTT; Sigma) assay. Cells were seeded at a density of 5000 cells/well in a 96-well plate and treated with SLLN-15 as indicated concentration or DMSO for 24 hours. MTT solution (5 mg/ml in RPMI 1640 medium) was added (20 μl/well), and plates were incubated for 4 hours in dark at 37° C., then the purple formazan crystals were then dissolved in 100 μl MTT solvent (4 mM HCl and 0.1% NP-40 in isopropanol). The plates were read on FLUOstar OPTIMA microplate reader (BMG Labtech, Ortenberg, Germany) at 570 nm. Assays were performed in triplicate on three independent experiments.

[5] = biological target: Janus kinase 2 (JAK2) (Homo sapiens, UniProt O60674); experiment: SelectScreen kinase profiling (Invitrogen), high-throughput screening against a panel of kinases; type: biochemical; details: 100 nM screening concentration
Sequence of Janus kinase 2 (JAK2) (O60674 whole entry): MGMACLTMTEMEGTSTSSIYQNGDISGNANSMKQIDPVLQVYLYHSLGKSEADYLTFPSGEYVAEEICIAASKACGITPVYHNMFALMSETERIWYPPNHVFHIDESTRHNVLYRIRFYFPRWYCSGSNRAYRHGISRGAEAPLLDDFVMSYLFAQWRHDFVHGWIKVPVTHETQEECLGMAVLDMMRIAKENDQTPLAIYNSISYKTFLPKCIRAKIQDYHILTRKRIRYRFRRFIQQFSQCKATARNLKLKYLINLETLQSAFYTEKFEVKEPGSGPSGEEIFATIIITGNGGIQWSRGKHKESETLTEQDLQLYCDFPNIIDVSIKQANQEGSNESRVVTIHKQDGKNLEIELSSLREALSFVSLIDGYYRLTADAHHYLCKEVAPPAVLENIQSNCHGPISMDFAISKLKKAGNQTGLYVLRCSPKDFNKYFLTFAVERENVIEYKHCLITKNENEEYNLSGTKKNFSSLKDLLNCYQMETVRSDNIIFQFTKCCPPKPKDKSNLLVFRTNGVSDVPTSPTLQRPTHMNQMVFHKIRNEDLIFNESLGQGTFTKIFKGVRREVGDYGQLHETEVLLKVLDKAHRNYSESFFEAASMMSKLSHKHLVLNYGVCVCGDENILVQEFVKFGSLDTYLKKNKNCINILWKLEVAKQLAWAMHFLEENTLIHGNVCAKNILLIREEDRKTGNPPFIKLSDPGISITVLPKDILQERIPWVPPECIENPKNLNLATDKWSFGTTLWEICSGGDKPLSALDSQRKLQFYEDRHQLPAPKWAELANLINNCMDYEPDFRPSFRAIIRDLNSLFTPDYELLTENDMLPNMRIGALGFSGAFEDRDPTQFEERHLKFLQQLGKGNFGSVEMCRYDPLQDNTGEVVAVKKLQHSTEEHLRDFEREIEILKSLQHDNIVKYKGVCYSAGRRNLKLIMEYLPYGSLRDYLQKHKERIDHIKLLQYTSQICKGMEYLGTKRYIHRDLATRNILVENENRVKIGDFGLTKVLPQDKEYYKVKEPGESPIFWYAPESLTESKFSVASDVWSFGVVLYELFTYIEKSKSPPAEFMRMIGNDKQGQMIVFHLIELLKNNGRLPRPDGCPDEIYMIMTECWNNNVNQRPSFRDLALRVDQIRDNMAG
Procedure: (§3) FIG. S3A represents the SelectScreen kinase profiling (Invitrogen) results obtained against a panel of kinases for SLLN-15 at 100 nM.
as §2

[6] = biological target: T1, Aurora kinase A (Homo sapiens, UniProt O14965); experiment: as above; type: biochemical; details: 100 nM screening concentration
T1 sequence (O14965 1-403): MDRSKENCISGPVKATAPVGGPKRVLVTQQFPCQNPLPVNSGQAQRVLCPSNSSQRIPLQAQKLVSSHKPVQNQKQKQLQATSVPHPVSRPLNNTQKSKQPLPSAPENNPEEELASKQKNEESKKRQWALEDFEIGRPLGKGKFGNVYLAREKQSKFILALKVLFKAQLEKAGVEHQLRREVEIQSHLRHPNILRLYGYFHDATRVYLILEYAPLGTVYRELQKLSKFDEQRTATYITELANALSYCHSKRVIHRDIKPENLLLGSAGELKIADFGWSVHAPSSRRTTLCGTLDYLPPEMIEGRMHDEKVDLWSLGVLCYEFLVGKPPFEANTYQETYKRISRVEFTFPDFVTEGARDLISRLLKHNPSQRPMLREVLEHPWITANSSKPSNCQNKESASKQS
Procedure: as §3, §2

[7] = test system: breast cancer stem-like cells (BCSCs), ALDHhigh and CD24low/CD44high; experiment: Anti-stemness activity in breast cancer stem-like cells; type: cell-based
Text: Breast cancer stem-like cells (BCSCs), heterogeneously subsisting as CD24low/CD44high and ALDHhigh subpopulations, are enriched in aggressive breast cancer subtypes and believed to be responsible for driving metastatic colonization. Despite evidence of a clinical association between BCSC and poor prognosis, effective therapeutic means to target this cell population is lacking. We identified SLLN-15 as a compound with selective anti-sternness activity across a panel of cell lines expressing ALDHhigh and CD24low/CD44high markers, including MDA-MB-231, SUM-149PT, BT-20, SKBR3, 4T1 and several anaplastic thyroid cell lines. […] In summary, our data foster that targeting regulatory networks driving sternness represent important therapeutic targets for treating metastatic breast disease.

[8] = test system: MDA-MB-231 and BT-20 cells; experiment: Light microscopy of cell morphology; type: cell-based; details: compared to control cells; more detached and shrunken cells
Text: FIG. S1 represents the cell morphological changes of MDA-MB-231 and BT-20 upon SLLN-15 treatment as visualized by light microscopy.
Within our quest to develop effective novel anti-cancer drug for TNBCs, we designed and synthesized a library of compounds derived from seleno-purine scaffolds. A high-throughput screening of major classes of kinases and enzymes involved in carcinogenesis identified a 4-selenomorpholinophenyl- and tetrahydroselenophene-substituted diamino-purines, namely SLLN-15 (FIG. 1A), as a potent small molecule capable of inhibiting TNBC cells. […] Subsequent cell-based assays confirmed this small molecule to inhibit the proliferation of two TNBC cell lines, BT-20 and MDA-MB-231.

In the case of c1nc2nc(Nc3ccc(N4CC[Se]CC4)cc3)nc(N[C@H]3CC[Se]C3)c2[nH]1 [SLLN-15], the “phosphorylation of Aurora A at Thr288, Aurora B at Thr232, Aurora C at Thr198” value ([1]; 1 μM, FIG. 7A) is reported as “strongly inhibited phosphorylation of both Aurora A at Thr288 and B at Thr232 but not Aurora C at Thr198”, the “expression of Aurora A over time” value ([1]; BT-20 cells, 6 hours post-treatment, FIG. 7C) is reported as “downregulated the expression of Aurora A at earlier time points” and the “Aurora A and Aurora B expression” value ([1]; dose-dependent, FIG. 7A) is reported as “decreased both Aurora A and Aurora B expression”. For the same compound, the “phosphorylation levels of Akt, mTOR, p70S6K, S6 and 4EBP1” value [2] was “decreased phosphorylation levels”, the “anti-proliferation potency compared to rapamycin” value [3] was “more potent anti-proliferation agents” and the BrdU-positive cells ([3]; dose-dependent) was “lower percentage of BrdU-positive cells”. The “short-term and long-term cell viability (MTT and clonogenic assay)” value ([4]; SLLN-15 in presence of autophagy inhibitor 3-MA, FIGS. 5D and E) was “rescued both short-term and long-term cell viability”, the “cell viability (MTT)” value ([4]; time-dependent, SLLN-15 compared with vorinostat, FIG. 6A) was “markedly decreased cell viability” and the “overall cell viability (MTT)” value ([4]; treatment for 24 hours, dose-dependent, FIG. 1C) was “markedly decreased overall cell viability”. The “inhibition of Janus kinase 2 (JAK2)” value [5] was 85%, the “inhibition of Aurora kinase A” value [6] was 91% and the centrosomes clustering ([7]; FIGS. 8A and 8B) was “interferes with centrosomes clustering”. For the same compound, the cell locomotion ([7]; MDA-MB-231, sorted BCSC subpopulation, concurrent inhibition of focal adhesion kinase signaling) was “induced loss of cell locomotion”, the “BCSC-marker expression, tumorspheres formation, STAT3 activation, mitotic spindle assembly” value ([7]; SLLN-15-treated cells) was “reduced BCSC-marker expression, tumorspheres formation, STAT3 activation and defective mitotic spindle assembly” and the cell morphology [8] was “induced obvious morphological changes”.
